Data: PubChem BioAssay AID1745844 (Carcinogenic Potency Database (CPDB), 2022)
Active and inactive are the calls of the source. No rule for the calls is given here.

System: rodent lifetime carcinogenesis bioassay, tumor incidence TD50
Assay: carcinogenic potency in animals, long-term in vivo studies, CPDB compilation (AID 1745844)
Details: in feed
[1] = rat, strain Fischer 344, females, site: any site (literature study), lesion: several types, types named in the paper, dosed 103 weeks, study length 104 weeks
[2] = rat, strain Fischer 344, females, site: liver, lesion: hepatocellular adenoma + hepatocellular carcinoma + neoplastic nodule, dosed 103 weeks, study length 104 weeks
[3] = rat, strain Fischer 344, females, site: liver, lesion: hepatocellular carcinoma + neoplastic nodule, dosed 103 weeks, study length 104 weeks
[4] = rat, strain Fischer 344, males, site: liver, lesion: hepatocellular adenoma + hepatocellular carcinoma + neoplastic nodule, dosed 103 weeks, study length 104 weeks

## O=[N+]([O-])c1cc(N(CCO)CCO)ccc1NCCO
mouse, strain B6C3F1, females, site: any site (literature study), lesion: several types, types named in the paper, dosed 104 weeks, study length 105 weeks
  TD50: 42000 mg/kg/day (inactive)
mouse, strain B6C3F1, females, site: liver, lesion: hepatocellular adenoma + hepatocellular carcinoma + neoplastic nodule, dosed 104 weeks, study length 105 weeks
  TD50: 19000 mg/kg/day
mouse, strain B6C3F1, males, site: all sites, lesion: malignant lymphoma, histiocytic type + malignant lymphoma, mixed type + malignant lymphoma, lymphocytic type, dosed 104 weeks, study length 105 weeks
  TD50: 4040 mg/kg/day
mouse, strain B6C3F1, males, site: all sites, lesion: malignant lymphoma, lymphocytic type, dosed 104 weeks, study length 105 weeks
  TD50: 5450 mg/kg/day
mouse, strain B6C3F1, males, site: any site (literature study), lesion: several types, types named in the paper, dosed 104 weeks, study length 105 weeks
  TD50: 5020 mg/kg/day
mouse, strain B6C3F1, males, site: liver, lesion: hepatocellular adenoma + hepatocellular carcinoma + neoplastic nodule, dosed 104 weeks, study length 105 weeks
  TD50: 6550 mg/kg/day
mouse, strain B6C3F1, males, site: skin + subcutaneous tissue, lesion: fibrosarcoma + fibroma, dosed 104 weeks, study length 105 weeks
  TD50: 970 mg/kg/day (inactive)
[1]
  TD50: 3.13e+06 mg/kg/day
[2]
  TD50: 8150 mg/kg/day
[3]
  TD50: 8150 mg/kg/day (inactive)
[4]
  TD50: 20300 mg/kg/day
rat, strain Fischer 344, males, site: thyroid gland, lesion: c-cell carcinoma, dosed 103 weeks, study length 104 weeks
  TD50: 1990 mg/kg/day (inactive)

## Brc1c(Br)c(Br)c(Oc2c(Br)c(Br)c(Br)c(Br)c2Br)c(Br)c1Br
mouse, strain B6C3F1, females, site: any site (literature study), lesion: several types, types named in the paper, dosed 103 weeks, study length 103 weeks
  carcinogen call: negative (inactive)
mouse, strain B6C3F1, females, site: liver, lesion: hepatocellular adenoma + hepatocellular carcinoma + neoplastic nodule, dosed 103 weeks, study length 103 weeks
  TD50: 33400 mg/kg/day
mouse, strain B6C3F1, males, site: any site (literature study), lesion: several types, types named in the paper, dosed 103 weeks, study length 103 weeks
  TD50: 9060 mg/kg/day
mouse, strain B6C3F1, males, site: liver, lesion: hepatocellular adenoma + hepatocellular carcinoma + neoplastic nodule, dosed 103 weeks, study length 103 weeks
  TD50: 11200 mg/kg/day
mouse, strain B6C3F1, males, site: liver, lesion: hepatocellular adenoma + hepatocellular carcinoma, dosed 103 weeks, study length 103 weeks
  TD50: 11200 mg/kg/day
mouse, strain B6C3F1, males, site: thyroid gland, lesion: follicular-cell adenoma + follicular-cell carcinoma, dosed 103 weeks, study length 103 weeks
  TD50: 20500 mg/kg/day
[1]
  TD50: 4380 mg/kg/day
[2]
  TD50: 6580 mg/kg/day
[3]
  TD50: 6580 mg/kg/day
rat, strain Fischer 344, females, site: liver, lesion: neoplastic nodule, dosed 103 weeks, study length 104 weeks
  TD50: 7740 mg/kg/day
rat, strain Fischer 344, males, site: any site (literature study), lesion: several types, types named in the paper, dosed 103 weeks, study length 104 weeks
  TD50: 2230 mg/kg/day
[4]
  TD50: 2220 mg/kg/day
rat, strain Fischer 344, males, site: liver, lesion: hepatocellular carcinoma + neoplastic nodule, dosed 103 weeks, study length 104 weeks
  TD50: 2220 mg/kg/day
rat, strain Fischer 344, males, site: liver, lesion: neoplastic nodule, dosed 103 weeks, study length 104 weeks
  TD50: 2130 mg/kg/day
rat, strain Fischer 344, males, site: pancreas, lesion: acinar-cell adenoma, dosed 103 weeks, study length 104 weeks
  TD50: 13900 mg/kg/day
rat, strain Sprague-Dawley Spartan, females, site: any site (literature study), lesion: several types, types named in the paper, dosed 105 weeks, study length 105 weeks
  TD50: 0.987 mg/kg/day (inactive)
rat, strain Sprague-Dawley Spartan, females, site: liver, lesion: hepatocellular tumor, dosed 105 weeks, study length 105 weeks
  carcinogen call: negative (inactive)
rat, strain Sprague-Dawley Spartan, males, site: any site (literature study), lesion: several types, types named in the paper, dosed 100 weeks, study length 100 weeks
  carcinogen call: negative (inactive)
rat, strain Sprague-Dawley Spartan, males, site: liver, lesion: hepatocellular tumor, dosed 100 weeks, study length 100 weeks
  carcinogen call: negative (inactive)

## Clc1ccc2c(c1)Oc1ccc(Cl)cc1O2
mouse, strain B6C3F1, females, site: any site (literature study), lesion: several types, types named in the paper, dosed 90 weeks, study length 91 weeks
  carcinogen call: negative (inactive)
mouse, strain B6C3F1, males, site: all sites, lesion: hemangioma + hemangiosarcoma, dosed 90 weeks, study length 92 weeks
  TD50: 2750 mg/kg/day
mouse, strain B6C3F1, males, site: all sites, lesion: leukemia + lymphoma, dosed 90 weeks, study length 92 weeks
  TD50: 1920 mg/kg/day
mouse, strain B6C3F1, males, site: any site (literature study), lesion: several types, types named in the paper, dosed 90 weeks, study length 92 weeks
  TD50: 2910 mg/kg/day
mouse, strain B6C3F1, males, site: liver, lesion: hepatocellular adenoma + hepatocellular carcinoma + neoplastic nodule, dosed 90 weeks, study length 92 weeks
  TD50: 2120 mg/kg/day
mouse, strain B6C3F1, males, site: liver, lesion: hepatocellular adenoma + hepatocellular carcinoma, dosed 90 weeks, study length 92 weeks
  TD50: 2120 mg/kg/day
rat, strain Osborne-Mendel, females, site: any site (literature study), lesion: several types, types named in the paper, dosed 110 weeks, study length 110 weeks
  carcinogen call: negative (inactive)
rat, strain Osborne-Mendel, males, site: any site (literature study), lesion: several types, types named in the paper, dosed 110 weeks, study length 110 weeks
  carcinogen call: negative (inactive)
rat, strain Osborne-Mendel, males, site: liver, lesion: hepatocellular adenoma + hepatocellular carcinoma + neoplastic nodule, dosed 110 weeks, study length 110 weeks
  TD50: 12900 mg/kg/day
